Assay [1] deals with 5-hydroxytryptamine receptor 2A (Homo sapiens, UniProt P28223). Kind of assay: Binding affinity toward 5-HT2A receptor evaluated by displacement of [125I]DOI radioligand. (In general: In a radioligand displacement assay an active substance lowers the binding of a labelled ligand.)
In assay [2] the target is T1, 5-hydroxytryptamine receptor 2C (Homo sapiens, UniProt P28335).
T1 sequence (P28335 whole entry): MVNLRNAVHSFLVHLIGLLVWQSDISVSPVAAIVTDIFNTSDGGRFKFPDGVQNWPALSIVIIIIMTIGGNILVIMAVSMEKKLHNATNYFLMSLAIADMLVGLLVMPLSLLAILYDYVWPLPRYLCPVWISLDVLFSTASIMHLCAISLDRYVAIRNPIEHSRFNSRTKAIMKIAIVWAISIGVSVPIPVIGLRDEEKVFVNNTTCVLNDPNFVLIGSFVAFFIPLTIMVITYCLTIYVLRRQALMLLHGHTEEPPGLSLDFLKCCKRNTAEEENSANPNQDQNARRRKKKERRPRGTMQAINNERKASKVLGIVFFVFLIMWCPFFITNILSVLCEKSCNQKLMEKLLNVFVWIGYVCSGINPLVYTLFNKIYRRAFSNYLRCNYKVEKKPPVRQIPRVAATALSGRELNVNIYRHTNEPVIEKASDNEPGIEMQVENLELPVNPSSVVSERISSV
Kind of assay: Binding affinity toward 5-HT2C receptor evaluated by displacement of [3H]5-HT radioligand.

Assay [3] has as its target 5-hydroxytryptamine receptor 2B (Homo sapiens, UniProt P41595). In words: Binding affinity toward 5-HT2B receptor evaluated by displacement of [3H]5-HT radioligand.
The target in assay [4] is T2, 5-hydroxytryptamine receptor 2C (Homo sapiens) (UniProt P28335).
T2 sequence (whole entry): T1 sequence (P28335 whole entry)
In words: Relative efficacy toward 5-HT2C receptor.

SMILES strings stand for the structures.

Sequence of 5-hydroxytryptamine receptor 2A (P28223 whole entry): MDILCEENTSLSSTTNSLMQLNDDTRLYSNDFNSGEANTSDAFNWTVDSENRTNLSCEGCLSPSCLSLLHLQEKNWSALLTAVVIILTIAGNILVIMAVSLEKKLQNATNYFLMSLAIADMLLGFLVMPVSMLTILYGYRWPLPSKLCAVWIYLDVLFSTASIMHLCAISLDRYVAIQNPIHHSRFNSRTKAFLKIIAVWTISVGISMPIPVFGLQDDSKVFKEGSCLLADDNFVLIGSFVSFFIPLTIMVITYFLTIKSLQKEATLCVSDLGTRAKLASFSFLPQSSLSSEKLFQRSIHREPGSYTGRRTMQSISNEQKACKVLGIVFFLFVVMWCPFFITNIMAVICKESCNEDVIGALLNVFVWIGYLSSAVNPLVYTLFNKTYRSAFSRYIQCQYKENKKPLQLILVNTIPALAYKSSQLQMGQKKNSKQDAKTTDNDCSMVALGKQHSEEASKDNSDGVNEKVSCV
Sequence of 5-hydroxytryptamine receptor 2B (P41595 whole entry): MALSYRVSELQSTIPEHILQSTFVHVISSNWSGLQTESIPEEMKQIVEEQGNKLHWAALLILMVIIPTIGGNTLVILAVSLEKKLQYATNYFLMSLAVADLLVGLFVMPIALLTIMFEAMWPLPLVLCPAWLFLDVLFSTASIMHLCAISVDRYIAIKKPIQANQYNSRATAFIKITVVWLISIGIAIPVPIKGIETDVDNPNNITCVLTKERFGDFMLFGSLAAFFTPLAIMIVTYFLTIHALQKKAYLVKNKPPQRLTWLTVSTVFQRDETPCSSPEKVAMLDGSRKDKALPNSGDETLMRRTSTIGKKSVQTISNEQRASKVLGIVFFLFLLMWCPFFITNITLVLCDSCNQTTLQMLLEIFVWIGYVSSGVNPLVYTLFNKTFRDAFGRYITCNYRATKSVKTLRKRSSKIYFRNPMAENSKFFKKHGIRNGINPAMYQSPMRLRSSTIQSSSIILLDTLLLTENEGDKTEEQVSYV

One may read the Ki as the equilibrium dissociation constant of an inhibitor or competing ligand from its target. Higher therefore signals lower affinity. `Cc1ccc2c(c1C)N1[C@@H](CNC[C@H]1C)C2`: the Ki in assay [1] is 34 nM; in assay [2], 1.7 nM; in assay [3] it was 13 nM. The same molecule registered an Efficacy in assay [4] of 96%.
Regarding `C[C@@H]1CNC[C@@H]2Cc3ccccc3N21` (stereo in doubt; 8) [listing 1 of 2 here], the Ki in assay [1] worked out at 61 nM; in assay [2], 22 nM; in assay [3], 160 nM.
For the molecule `Cc1cccc2c1N1[C@@H](CNC[C@H]1C)C2`, the Ki in assay [1] was 43 nM; in assay [2], 2.6 nM; in assay [3], 59 nM. This molecule gave an Efficacy in assay [4] of 100%.
The like results for `Cc1ccc2c(c1C)N1[C@H](CNC[C@H]1C)C2` were, in that order, 102 nM, 9.5 nM, 67 nM and 91%.
The like results for `C[C@@H]1CNC[C@H]2Cc3ccc(C#N)cc3N21` were, in that order, 110 nM, 3.8 nM, 90 nM and 77%.
The corresponding values for `Cc1c(Cl)ccc2c1N1CCNC[C@@H]1C2` are 52 nM, 32 nM, 140 nM and 80%.
Consider `C[C@@H]1CNC[C@@H]2Cc3ccccc3N21` (stereo in doubt; 8) [listing 2 of 2 here], for which the Efficacy in assay [4] was determined as 87%.
Still for that read-out and setting: the result for `C[C@@H]1CNC[C@@H]2Cc3ccccc3N21` (stereo in doubt; 7) [listing 1 of 2 here] reads 94%.
With `Cc1ccc2c(c1)N1[C@@H](CNC[C@H]1C)C2`, the Ki in assay [1] was 22 nM; in assay [2], 1.3 nM; in assay [3] it was 21 nM. In assay [4], this molecule came in with an Efficacy of 100%.
The corresponding values for `Cc1c(Cl)ccc2c1N1[C@@H](CNC[C@H]1C)C2` are 2.6 nM, 0.3 nM, 3.2 nM and 98%.
The like results for `C[C@@H]1CNC[C@H]2Cc3ccccc3N21` were, in that order, 1.9 nM, 2.2 nM, 15 nM and 97%.
The like results for `C[C@H]1CNC[C@@H]2Cc3ccccc3N21` were, in that order, 430 nM, 180 nM, 2600 nM and 62%.
Take `C[C@@H]1CNC[C@H]2Cc3ccc(CO)cc3N21`: the results for the Ki in assay [1], in assay [2] and in assay [3] were 290 nM, 34 nM and 250 nM, respectively. Also, in assay [4], the Efficacy turned out to be 97%.
The corresponding values for `Cc1c(Cl)ccc2c1N1[C@H](CNC[C@H]1C)C2` are 40 nM, 1.9 nM, 19 nM and 97%.
The corresponding values for `Clc1ccc2c(c1)N1CCNCC1C2` (stereo not drawn) are 32 nM, 31 nM, 53 nM and 99%.
The corresponding values for `CC(=O)Nc1ccc2c(c1)N1[C@@H](CNC[C@H]1C)C2` are 1100 nM, 680 nM, 960 nM and 24%.
With `C[C@@H]1CNC[C@@H]2Cc3ccccc3N21` (stereo in doubt; 7) [listing 2 of 2 here], the Ki in assay [1] amounted to 55 nM; in assay [2], 13 nM; in assay [3], 210 nM.
With `Cc1c(Cl)ccc2c1N1CCNC[C@H]1C2`, the Ki in assay [1] worked out at 6.2 nM; in assay [2] it was 1.5 nM; in assay [3] it was 10 nM. Also, the Efficacy in assay [4] was determined as 90%.
The corresponding values for `C[C@@H]1CNC[C@H]2Cc3ccc(C(F)(F)F)cc3N21` are 7.5 nM, 1.4 nM, 11 nM and 94%.

For the origin of these results see ChEMBL document CHEMBL1142762, “Identification of 4-methyl-1,2,3,4,10,10a-hexahydropyrazino[1,2-a]indoles as 5-HT2C receptor agonists” (Bioorg Med Chem Lett, 2005).
